From patent US11154544B2, “Amide derivatives as Nav1.7 and Nav1.8 blockers” (RaQualia Pharma Inc., priority 2017, dated 2021)

Target: Nav1.7 (Homo sapiens (Human), UniProt Q15858)
Assay: EFS-FRET assay
Assay type: cell-based
Conditions: EFS-FRET, CHO cells expressing human Nav1.7; read-out: IC50 against Nav1.7
Experimental: This screen is used to determine the effects of compounds on human Nav1.7 channels, utilizing electrical field stimulation (EFS) system in 96-well plate format on FDSS (Hamamatsu Photonics) platform. The change of membrane potential is monitored with FRET dye pair, DiSBAC2(3) and PTS 18.
CHO (Chinese hamster ovary) cells expressing human Nav1.7 channels are grown in T225 flasks, in a 5% CO2 humidified incubator to about 80% confluence. Media composition consists of HAM/F^.12 with Glutamax I, 10% FCS, 100 units/mL penicillin and 100 microgram/mL hygromycin.
Seed each cell lines (1×10^5 cells/well) into 96-well plates prior to experimentation.
Incubate at 37° C. in 5% CO2, for 24 hours.
Wash each well with assay buffer (140 mM NaCl, […], 10 mM D-Glucose, 2 mM CaCl2, 1 mM MgCl2, 10 mM HEPES, pH 7.4 adjusted with NaOH) twice.
Add 1st loading solution containing 10 microM PTS18 and 0.06% Pluronic F-127 in assay buffer.
Incubate the plate at rt in dark for 1 hour. • Remove 1st loading solution and add 2nd loading solution containing 12.5 microM DiSBAC2(3), 1.25 mM Xylene Fast Yellow and 0.0075% Pluronic F-127 in assay buffer. • Place the plate under the dark at rt for 25 minutes. • Add compound solutions into the assay plate. • Set the assay plate in FDSS and place an EFS device on the plate. • Measure EFS-induced fluorescent response by FDSS.
The data are analyzed and reported as normalized ratios of intensities measured at […]. The process of calculating these ratios is performed as follows:
This analysis is performed using a computerized specific program designed for
FDSS generated data. Fluorescence ratio values are plotted using XLfit to determine an IC50 value for each, compound.

Nav1.7, sequence (Q15858 whole entry): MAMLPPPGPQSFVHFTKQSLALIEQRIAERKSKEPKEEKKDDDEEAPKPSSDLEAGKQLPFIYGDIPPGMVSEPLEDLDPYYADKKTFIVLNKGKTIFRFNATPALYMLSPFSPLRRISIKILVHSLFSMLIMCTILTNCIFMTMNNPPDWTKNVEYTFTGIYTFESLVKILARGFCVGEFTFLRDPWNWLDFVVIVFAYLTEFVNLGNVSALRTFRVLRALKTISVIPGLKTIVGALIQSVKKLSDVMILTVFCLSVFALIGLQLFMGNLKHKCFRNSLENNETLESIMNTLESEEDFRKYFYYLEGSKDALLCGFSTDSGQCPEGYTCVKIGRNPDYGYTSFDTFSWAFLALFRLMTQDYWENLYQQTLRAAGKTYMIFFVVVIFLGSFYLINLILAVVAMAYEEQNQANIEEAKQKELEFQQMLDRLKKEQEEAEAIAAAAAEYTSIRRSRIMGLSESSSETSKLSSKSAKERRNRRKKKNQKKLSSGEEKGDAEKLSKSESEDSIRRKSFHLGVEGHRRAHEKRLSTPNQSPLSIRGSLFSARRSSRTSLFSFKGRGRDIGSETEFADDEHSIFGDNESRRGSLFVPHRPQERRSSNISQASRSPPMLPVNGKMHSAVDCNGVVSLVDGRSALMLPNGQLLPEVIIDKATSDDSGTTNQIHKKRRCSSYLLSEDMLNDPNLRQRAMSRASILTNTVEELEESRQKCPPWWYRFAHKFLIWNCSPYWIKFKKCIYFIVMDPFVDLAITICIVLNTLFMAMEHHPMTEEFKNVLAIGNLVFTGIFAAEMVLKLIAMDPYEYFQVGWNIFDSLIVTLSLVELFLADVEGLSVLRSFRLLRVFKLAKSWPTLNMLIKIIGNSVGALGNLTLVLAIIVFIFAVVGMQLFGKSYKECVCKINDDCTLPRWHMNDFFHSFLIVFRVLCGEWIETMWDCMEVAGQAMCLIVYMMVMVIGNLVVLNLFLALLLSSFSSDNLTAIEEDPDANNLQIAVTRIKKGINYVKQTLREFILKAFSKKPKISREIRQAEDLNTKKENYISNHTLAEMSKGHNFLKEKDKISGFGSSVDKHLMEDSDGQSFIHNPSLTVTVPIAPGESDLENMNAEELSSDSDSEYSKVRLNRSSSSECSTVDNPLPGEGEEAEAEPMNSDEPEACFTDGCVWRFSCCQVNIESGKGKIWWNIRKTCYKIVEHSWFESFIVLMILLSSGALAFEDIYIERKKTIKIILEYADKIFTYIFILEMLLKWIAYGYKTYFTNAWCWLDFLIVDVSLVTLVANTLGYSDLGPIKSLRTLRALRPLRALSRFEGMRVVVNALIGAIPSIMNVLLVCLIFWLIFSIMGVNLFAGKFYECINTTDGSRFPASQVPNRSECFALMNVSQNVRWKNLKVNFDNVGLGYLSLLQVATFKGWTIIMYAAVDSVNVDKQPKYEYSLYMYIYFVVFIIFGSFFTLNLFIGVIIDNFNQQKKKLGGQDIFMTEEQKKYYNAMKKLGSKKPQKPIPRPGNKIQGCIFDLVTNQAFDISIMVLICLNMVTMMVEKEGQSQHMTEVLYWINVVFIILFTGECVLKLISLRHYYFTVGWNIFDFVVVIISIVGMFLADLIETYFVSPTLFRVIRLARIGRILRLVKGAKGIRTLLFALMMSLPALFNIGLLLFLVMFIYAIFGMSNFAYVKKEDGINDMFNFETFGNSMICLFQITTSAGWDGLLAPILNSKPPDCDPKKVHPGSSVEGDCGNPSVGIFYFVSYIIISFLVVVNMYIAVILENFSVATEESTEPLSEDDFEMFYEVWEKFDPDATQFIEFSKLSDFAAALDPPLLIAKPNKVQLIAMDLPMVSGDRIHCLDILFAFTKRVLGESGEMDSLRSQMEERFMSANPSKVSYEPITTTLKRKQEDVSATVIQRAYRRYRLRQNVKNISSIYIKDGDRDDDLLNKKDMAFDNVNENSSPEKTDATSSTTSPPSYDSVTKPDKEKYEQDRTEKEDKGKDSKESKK

IC50, < 500 nM:
CC(=O)Nc1cc(C(=O)NCCNc2ncc(C(F)(F)F)cc2Cl)ccn1 [Example 2]
CCC(=O)Nc1cc(C(=O)NCCNc2ncc(C(F)(F)F)cc2Cl)cc(C)n1 [Example 5]
O=C(NCCNc1ncc(C(F)(F)F)cc1Cl)c1ccnc(NC(=O)C2CC2)c1 [Example 6]
CC(C)C(=O)Nc1cc(C(=O)NCCNc2ncc(C(F)(F)F)cc2Cl)ccn1 [Example 7]
CCC(=O)Nc1cc(C(=O)NCCOc2ncc(C(F)(F)F)cc2Cl)ccn1 [Example 9]
CC(=O)Nc1cc(C(=O)NCCOc2ncc(C(F)(F)F)cc2Cl)cc(C)n1 [Example 10]
CCC(=O)Nc1cc(C(=O)NCCOc2ccc(C(F)(F)F)cn2)cc(C)n1 [Example 12]
O=C(NCCOc1ncc(C(F)(F)F)cc1Cl)c1ccnc(NC(=O)C2CC2)c1 [Example 14]
CCC(=O)Nc1cc(C(=O)NCCOc2ncc(C(F)(F)F)cc2Cl)cc(C)n1 [Example 15]
Cc1cc(C(=O)NCCOc2ncc(C(F)(F)F)cc2Cl)nc(NC(=O)C2CC2)n1 [Example 16]
CC(=O)Nc1cc(C(=O)NCCOc2cccc(OC(F)(F)F)c2)cc(C)n1 [Example 19]
CCC(=O)Nc1cc(C(=O)NCCOc2ccc(C(F)(F)F)cc2Cl)ccn1 [Example 21]
CC(C)C(=O)Nc1cc(C(=O)NCCOc2ccc(C(F)(F)F)cc2Cl)ccn1 [Example 22]
CC(=O)Nc1cc(C(=O)NCCOc2ccc(C(F)(F)F)cc2Cl)cc(C)n1 [Example 23]
Cc1cc(C(=O)NCCOc2ncc(C(F)(F)F)cc2Cl)cc(NC(=O)C2CC2)n1 [Example 25]
Cc1cc(C(=O)NCCNc2ncc(C(F)(F)F)cc2Cl)cc(NC(=O)C2CC2)n1 [Example 26]
CC(=O)Nc1cc(C(=O)NCCCc2ncc(C(F)(F)F)cc2Cl)cc(C)n1 [Example 28]
CCC(=O)Nc1cc(C(=O)NCCCc2ncc(C(F)(F)F)cc2Cl)ccn1 [Example 30]
CC(=O)Nc1cc(C(=O)NCCOc2ccc(S(F)(F)(F)(F)F)cc2)cc(C)n1 [Example 31]
CCC(=O)Nc1cc(C(=O)NCCOc2ccc(S(F)(F)(F)(F)F)cc2)ccn1 [Example 32]
O=C(NCCOc1ccc(S(F)(F)(F)(F)F)cc1)c1ccnc(NC(=O)C2CC2)c1 [Example 33]
CC(C)C(=O)Nc1cc(C(=O)NCCOc2ccc(S(F)(F)(F)(F)F)cc2)ccn1 [Example 34]
O=C(NCCOc1ncc(C(F)(F)F)cc1Cl)c1ccnc(NC(=O)C2CC2)n1 [Example 36]
Cc1cc(C(=O)NCCNc2ncc(C(F)(F)F)cc2Cl)cc(NC(=O)C(C)C)n1 [Example 37]
O=C(NCCNc1ncc(C(F)(F)F)cc1Cl)c1ccnc(NC(=O)C2CC2)n1 [Example 38]
CCC(=O)Nc1cc(C(=O)NCCOc2ccc(C(F)(F)F)cc2Cl)cc(C)n1 [Example 39]
O=C(NCCOc1ccc(C(F)(F)F)cc1Cl)c1ccnc(NC(=O)C2CC2)c1 [Example 40]
Cc1cc(C(=O)NCCOc2ccc(C(F)(F)F)cc2Cl)cc(NC(=O)C2CC2)n1 [Example 41]
Cc1cc(C(=O)NCCOc2ccc(C(F)(F)F)cc2Cl)cc(NC(=O)C(C)C)n1 [Example 42]
O=C(NCCOc1ccc(C(F)(F)F)cc1Cl)c1ccnc(NC(=O)C2CC2)n1 [Example 43]
CCC(=O)Nc1cc(C(=O)NCCOc2ccc3cc(C(F)(F)F)ccc3n2)cc(C)n1 [Example 44]
O=C(NCCOc1ccc2cc(C(F)(F)F)ccc2n1)c1ccnc(NC(=O)C2CC2)c1 [Example 45]
CC(C)C(=O)Nc1cc(C(=O)NCCOc2ccc3cc(C(F)(F)F)ccc3n2)ccn1 [Example 46]
CCC(=O)Nc1cc(C(=O)NCCOc2ccc3cc(OCC(F)(F)F)ccc3c2)cc(C)n1 [Example 49]
CC(=O)Nc1cc(C(=O)NCCSc2ncc(C(F)(F)F)cc2Cl)cc(C)n1 [Example 54]
CC(=O)Nc1cc(C(=O)NCCOc2ccc3cc(C(F)(F)F)ccc3n2)ccn1 [Example 56]
CCC(=O)Nc1cc(C(=O)NCCOc2ccc3cc(C(F)(F)F)ccc3n2)ccn1 [Example 57]
CC(=O)Nc1cc(C(=O)NCCOc2ccc3cc(C(F)(F)F)ccc3n2)cc(C)n1 [Example 58]
Cc1cc(C(=O)NCCOc2ccc3cc(C(F)(F)F)ccc3n2)cc(NC(=O)C2CC2)n1 [Example 59]
Cc1cc(C(=O)NCCOc2ccc3cc(C(F)(F)F)ccc3n2)cc(NC(=O)C(C)C)n1 [Example 60]
CCC(=O)Nc1cc(C(=O)N[C@H](C)COc2ncc(C(F)(F)F)cc2Cl)ccn1 [Example 64]
CC(=O)Nc1cc(C(=O)N[C@H](C)COc2ncc(C(F)(F)F)cc2Cl)cc(C)n1 [Example 65]
CCC(=O)Nc1cc(C(=O)N[C@H](C)COc2ncc(C(F)(F)F)cc2Cl)cc(C)n1 [Example 66]
C[C@H](COc1ncc(C(F)(F)F)cc1Cl)NC(=O)c1ccnc(NC(=O)C2CC2)c1 [Example 67]
CC(C)C(=O)Nc1cc(C(=O)N[C@H](C)COc2ncc(C(F)(F)F)cc2Cl)ccn1 [Example 68]
Cc1cc(C(=O)N[C@H](C)COc2ncc(C(F)(F)F)cc2Cl)cc(NC(=O)C2CC2)n1 [Example 69]
Cc1cc(C(=O)N[C@H](C)COc2ncc(C(F)(F)F)cc2Cl)cc(NC(=O)C(C)C)n1 [Example 70]
C[C@H](COc1ncc(C(F)(F)F)cc1Cl)NC(=O)c1ccnc(NC(=O)C2CC2)n1 [Example 71]
CC(=O)Nc1cc(C(=O)NC[C@@H](C)Oc2ncc(C(F)(F)F)cc2Cl)cc(C)n1 [Example 73]
CCC(=O)Nc1cc(C(=O)NC[C@@H](C)Oc2ncc(C(F)(F)F)cc2Cl)cc(C)n1 [Example 74]
Cc1cc(C(=O)NC[C@@H](C)Oc2ncc(C(F)(F)F)cc2Cl)cc(NC(=O)C2CC2)n1 [Example 76]
Cc1cc(C(=O)NC[C@@H](C)Oc2ncc(C(F)(F)F)cc2Cl)cc(NC(=O)C(C)C)n1 [Example 77]
CC(C)C(=O)Nc1cc(C(=O)NCCOc2ccnc3cc(C(F)(F)F)ccc23)ccn1 [Example 80]
CCCC(=O)Nc1cc(C(=O)NCCOc2ncc(C(F)(F)F)cc2Cl)ccn1 [Example 87]
CCC(=O)Nc1nc(C)cc(C(=O)NCCOc2ncc(C(F)(F)F)cc2Cl)n1 [Example 89]
Cc1cc(C(=O)NCCOc2ncc(C(F)(F)F)cc2Cl)nc(NC(=O)C(C)C)n1 [Example 90]
CC(=O)Nc1cc(C(=O)NCCOc2ccc(C(F)(F)F)cc2F)cc(C)n1 [Example 93]
CCC(=O)Nc1cc(C(=O)NCCOc2ccc(C(F)(F)F)cc2F)cc(C)n1 [Example 94]
CC(C)C(=O)Nc1cc(C(=O)NCCOc2ccc(C(F)(F)F)cc2F)ccn1 [Example 96]
Cc1cc(C(=O)NCCOc2ccc(C(F)(F)F)cc2F)cc(NC(=O)C2CC2)n1 [Example 97]
Cc1cc(C(=O)NCCOc2ccc(C(F)(F)F)cc2F)cc(NC(=O)C(C)C)n1 [Example 98]
CCC(=O)Nc1cc(C(=O)NCCOc2ccc(OC(F)(F)F)cc2Cl)cc(C)n1 [Example 105]
O=C(NCCOc1ccc(OC(F)(F)F)cc1Cl)C1C=C(NC(=O)C2CC2)N=CC1 (stereo not shown) [Example 106]
CC(C)C(=O)Nc1cc(C(=O)NCCOc2ccc(OC(F)(F)F)cc2Cl)ccn1 [Example 107]
Cc1cc(C(=O)NCCOc2ccc(OC(F)(F)F)cc2Cl)cc(NC(=O)C(C)C)n1 [Example 108]
CC(=O)Nc1cc(C(=O)NCCOc2ccc(OC(F)(F)F)cc2Cl)ccn1 [Example 113]
CCC(=O)Nc1cc(C(=O)NCCOc2ccc(OC(F)(F)F)cc2Cl)ccn1 [Example 114]
Cc1cc(C(=O)NCCOc2ccc(OC(F)(F)F)cc2Cl)cc(NC(=O)C2CC2)n1 [Example 115]
CC(=O)Nc1cc(C(=O)NCCOc2ccc(OC(F)(F)F)cc2Cl)cc(C)n1 [Example 116]
O=C(NCCOc1ccc(OC(F)(F)F)cc1Cl)c1ccnc(NC(=O)C2CC2)c1 [Example 117]
CCC(=O)Nc1cc(C(=O)NCCCNc2ncc(C(F)(F)F)cc2Cl)ccn1 [Example 119]
CC(C)C(=O)Nc1cc(C(=O)NCCCOc2ncc(C(F)(F)F)cc2Cl)ccn1 [Example 123]
COc1cc(C(F)(F)F)ccc1OCCNC(=O)c1ccnc(NC(C)=O)c1 [Example 126]
